Kcat and TAL/PAL data for one molecule are collected here from patent US11306331B2, “Processes for the production of hydroxycinnamic acids using polypeptides having tyrosine ammonia lyase activity” (CysBio ApS, priority 2014, dated 2022).

The assay addresses T1, Saccharothrix espanaensis SeSam8 (Protein GI 433607630), His-tagged (N-terminal tag SEQ ID NO: 11) (Saccharothrix espanaensis, UniProt Q2EYY5).
T1 sequence (Q2EYY5 1-510): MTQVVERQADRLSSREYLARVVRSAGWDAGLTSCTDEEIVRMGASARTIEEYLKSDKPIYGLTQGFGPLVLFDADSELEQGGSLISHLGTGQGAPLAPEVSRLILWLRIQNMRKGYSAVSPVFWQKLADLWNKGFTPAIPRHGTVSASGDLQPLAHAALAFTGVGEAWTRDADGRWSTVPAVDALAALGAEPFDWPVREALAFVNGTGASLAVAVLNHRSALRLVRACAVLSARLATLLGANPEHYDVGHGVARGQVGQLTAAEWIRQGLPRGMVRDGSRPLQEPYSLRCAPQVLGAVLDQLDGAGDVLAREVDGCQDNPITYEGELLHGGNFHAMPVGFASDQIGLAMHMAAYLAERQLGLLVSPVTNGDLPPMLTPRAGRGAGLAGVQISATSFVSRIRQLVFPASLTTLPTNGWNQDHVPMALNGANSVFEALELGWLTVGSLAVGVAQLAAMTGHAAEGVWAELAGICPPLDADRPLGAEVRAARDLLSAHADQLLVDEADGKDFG
Nature of the assay: In vitro kinetics of purified His-tagged SeSam8 (tyrosine/phenylalanine ammonia lyase activity, absorbance at 315/295 nm). Type of assay: biochemical. The text has this: Four of the enzymes were further purified by His-tag purification as follows. A DNA linker (5′ phosphorylated oligonucleotides CBJP559 and CBJP560, Table 5) was inserted in place of the sequence between the NdeI and BgIII site in plasmid pCDFDuet-1. This would result in the addition of the amino acids MAHHHHHHENLYFQ (SEQ ID NO: 11) to the N-terminal end of the polypeptides. The resulting plasmid was amplified with primers CBJP575 and CBJP576 (table 5) and the genes were amplified and combined using the Gibson reaction (New England Biolabs). The PCR amplification used the same reverse primers as in example 1, but the forward primers matching the His-tag site of the linker (Table 5). Plasmids carrying the genes (e.g. FjXAL, FIG. 4) were transformed into electrocompetent E. coli BL21(DE3)pLysS cells (Life Technologies) and selected on LB plates containing 50 ug/mL streptomycin.
Strains expressing His-tagged versions of the enzymes were grown in LB media overnight at 37° C. and diluted into fresh LB media with 1 mM IPTG and growth was propagated overnight (approximately 18 h) at 30° C. […]
Enzymatic assays were performed in 200 μL volumes in wells in a UV transparent 96-well plate, by following the increase in absorbance at 315 nm (pHCA) or 295 nm (CA). […] The enzymatic activity was calculated as U/g, where U is defined as μmol substrate converted per minute.

Each structure is given as a SMILES string.

As for `N[C@@H](Cc1ccc(O)cc1)C(=O)O` [Tyr, tyrosine], the Kcat (30° C, 1.56 μM to 200 μM tyrosine or 193 μM to 25 mM phenylalanine) is 0.014 s⁻¹. For the same molecule, the TAL/PAL (ratio of Kcat/Km for Tyr over Phe) amounted to 730.
